US8466134B1, “Aqueous compositions containing corticosteroids for nasal and pulmonary delivery” (Athena Neurosciences, Inc., priority 1998, dated 2013)

Assay: Storage stability of budesonide formulations, % recovery (Examples 6 and 8)
Type: physicochemical
Settings: pH between about 3 and about 8, more preferably about 3.5 to about 6
Description: After dilution all samples were sterilized by filtering them through a 0.2 μm Millipore sterile filters and placed in sterile low density polyethylene plastic vials. These formulations were kept in humidity and temperature controlled chambers at 5° C. 25° C./60% RH and 40° C./75% RH (where RH is the relative humidity). The % recovery after 13.5 weeks from time zero is presented for each formulation and storage condition, in the following table: […]
The formulations described in Examples 6 and 7 were also prepared using lower buffer concentrations of 10 mM, 5 mM, and 1 mM with similar stability results.

## CCCC1O[C@@H]2C[C@H]3[C@@H]4CCC5=CC(=O)C=C[C@]5(C)[C@H]4[C@@H](O)C[C@]3(C)[C@]2(C(=O)CO)O1 (stereo partly shown) [Budesonide, budesonide]
  stability of aqueous compositions at lower pH ranges: superior stability
